Patent US9150526B2, “Biaryl-propionic acid derivatives and their use as pharmaceuticals” (SANOFI, priority 2013, dated 2015)

System: Recombinant human cathepsin A
Assay: Cathepsin A inhibitory activity (Bodipy FL-bradykinin substrate, microfluidic capillary electrophoresis)
Type: biochemical
Details: read-out: CATH A IC50
Description: Pharmacological Tests a) Cathepsin a Inhibitory Activity
Recombinant human cathepsin A (residues 29-480, with a C-terminal 10-His tag; R&D Systems, #1049-SE) was proteolytically activated with recombinant human cathepsin L (R&D Systems, #952-CY). Briefly, cathepsin A was incubated at 10 μg/ml with cathepsin L at 1 μg/ml in activation buffer (25 mM 2-(morpholin-4-yl)-ethanesulfonic acid (MES), pH 6.0, containing 5 mM dithiothreitol (DTT)) for 15 min at 37° C.
The activated cathepsin A was diluted in assay buffer (25 mM MES, pH 5.5, containing 5 mM DTT) and mixed with the test compound (dissolved in assay buffer containing (v/v) 3% DMSO) or, in the control experiments, with the vehicle in a multiple assay plate. After incubation for 15 min at room temperature, as substrate then bradykinin carrying an N-terminal ®Bodipy FL (4,4-difluoro-5,7-dimethyl-4-bora-3a,4a-diaza-s-indacene-3-propionyl) label (JPT Peptide Technologies GmbH; dissolved in assay buffer) was added to the mixture. The final concentration of cathepsin A was 833 ng/ml and the final concentration of labeled bradykinin 2 μM. After incubation for 15 min at room temperature the reaction was stopped by the addition of stop buffer (130 mM 2-(4-(2-hydroxy-ethyl)-piperazin-1-yl)-ethanesulfonic acid, pH 7.4, containing (v/v) 0.013% ®Triton X-100, 0.13% Coating Reagent 3 (Caliper Life Sciences), 6.5% DMSO and 20 μM ebelactone B (Sigma, # E0886)).
Uncleaved substrate and product were then separated by a microfluidic capillary electrophoresis on a LabChip® 3000 Drug Discovery System (12-Sipper-Chip; Caliper Life Sciences) and quantified by determination of the respective peak areas. Substrate turnover was calculated by dividing product peak area by the sum of substrate and product peak areas, and the enzyme activity and the inhibitory effect of the test compound thus quantified.

| SMILES | IC50 [nM] |
| --- | --- |
| COc1cccc(C#N)c1-c1cc(Cl)cc(C(CC(=O)O)c2nnc(C)o2)c1 (stereo not shown) [compound 156] | 104 |
| COc1ccc(C)cc1-c1cc(Cl)cc(C(CC(=O)O)c2ncc(C)s2)c1 (stereo not shown) [compound 81] | 52 |
| CCOc1ccccc1-c1cncc(C(CC(=O)O)c2nnc(C)o2)c1 (stereo not shown) [compound 193] | 4270 |
| COc1cccc(C(=O)N2CCCC2)c1-c1cc(C(CC(=O)O)c2nnc(C)o2)cc(C(F)(F)F)c1 (stereo not shown) [compound 216] | 1460 |
| COc1ccc(F)cc1-c1cc(C(CC(=O)O)c2nnc(C)o2)cc(C(F)(F)F)c1 (stereo not shown) [compound 218] | 12 |
| COc1cccc(F)c1-c1cc(F)cc(C(CC(=O)O)c2nnc(C)o2)c1 (stereo not shown) [compound 179] | 67 |
| COc1cc(C)cc(OC)c1-c1cc(C(CC(=O)O)c2nnc(C)o2)cc(C(F)(F)F)c1 (stereo not shown) [compound 206] | 6 |
| COc1ccc(-c2cccc(C(CC(=O)O)c3nccs3)c2)c(OC)c1 (stereo not shown) [compound 29] | 185 |
| COc1ccc(O)cc1-c1cccc(C(CC(=O)O)c2nccs2)c1 (stereo not shown) [compound 32] | 307 |
| COc1ccc(Cl)cc1-c1cccc(C(CC(=O)O)c2nccs2)c1 (stereo not shown) [compound 1] | 160 |
| COc1ccc(C(C)C)cc1-c1cc(F)cc(C(CC(=O)O)c2nnc(C)o2)c1 (stereo not shown) [compound 160] | 44 |
| COc1ccc(OC(F)(F)F)cc1-c1cc(F)cc(C(CC(=O)O)c2nnc(C)o2)c1 (stereo not shown) [compound 168] | 165 |
| COc1ccc(C)cc1-c1cccc(C(CC(=O)O)c2ncc(C)s2)c1 (stereo not shown) [compound 53] | 85 |
| COc1ccc(C(C)(C)C)cc1-c1cccc(C(CC(=O)O)c2nc(C)c(C)s2)c1 (stereo not shown) [compound 18] | 530 |
| COc1ccc(-c2cc(C(CC(=O)O)c3nnc(C)o3)cc(C(F)(F)F)c2)c(OC)c1 (stereo not shown) [compound 211] | 23 |
| COc1ccc(OC(F)(F)F)cc1-c1cccc(C(CC(=O)O)c2nccs2)c1 (stereo not shown) [compound 34] | 389 |
| COc1cccc(Cl)c1-c1cc(Cl)cc(C(CC(=O)O)c2ncc(C)s2)c1 (stereo not shown) [compound 84] | 53 |

| SMILES | IC50 [nM] |
| --- | --- |
| COc1c(F)cc(F)cc1-c1cccc(C(CC(=O)O)c2ncc(C)s2)c1 (stereo not shown) [compound 61] | 367 |
| COc1cc(Cl)ccc1-c1cccc(C(CC(=O)O)c2nccs2)c1 (stereo not shown) [compound 38] | 590 |
| COc1ccc(C)cc1-c1cc(C(CC(=O)O)c2nnc(C)o2)cc(C(F)(F)F)c1 (stereo not shown) [compound 202] | 17 |
| COc1c(F)cc(F)cc1-c1cccc(C(CC(=O)O)c2nccs2)c1 (stereo not shown) [compound 36] | 467 |
| COc1ccc(F)cc1-c1cccc(C(CC(=O)O)c2nccs2)c1 (stereo not shown) [compound 3] | 160 |
| COc1ccc(S(C)(=O)=O)cc1-c1cc(C(CC(=O)O)c2nnc(C)o2)cc(C(F)(F)F)c1 (stereo not shown) [compound 215] | 130 |
| COc1cccc(OC)c1-c1cccc(C(CC(=O)O)c2nnc(C)o2)c1 (stereo not shown) [compound 135] | 17 |
| COc1ccc(C)cc1-c1cccc(C(CC(=O)O)c2nccs2)c1 (stereo not shown) [compound 24] | 147 |
| COc1ccccc1-c1cccc(C(CC(=O)O)c2nccs2)c1 (stereo not shown) [compound 17] | 154 |
| COc1ccc(C(C)C)cc1-c1cccc([C@H](CC(=O)O)c2nnc(C)o2)c1 [compound 108] | 6260 |
| COc1c(F)cc(F)cc1-c1cc(Cl)cc(C(CC(=O)O)c2ncc(C)s2)c1 (stereo not shown) [compound 91] | 131 |
| COc1ccc(C(C)(C)C)cc1-c1cccc(C(CC(=O)O)c2nccs2)c1 (stereo not shown) [compound 4] | 119 |
| Cc1nnc(C(CC(=O)O)c2cccc(-c3ccccc3OC(F)(F)F)c2)o1 (stereo not shown) [compound 148] | 243 |
| COc1ccc(C(C)(C)C)cc1-c1cccc([C@H](CC(=O)O)c2nccs2)c1 [compound 5] | 35 |
| COc1cc(C)cc(OC)c1-c1cccc(C(CC(=O)O)c2ncco2)c1 (stereo not shown) [compound 16] | 49 |
| COc1cccc(F)c1-c1cc(C(CC(=O)O)c2nnc(C)o2)cc(C(F)(F)F)c1 (stereo not shown) [compound 212] | 8 |
| COc1c(C)cccc1-c1cc(F)cc(C(CC(=O)O)c2ncc(C)s2)c1 (stereo not shown) [compound 128] | 410 |
